Broadly, the Kd is the free concentration of one partner at which half of the binding sites on the other are occupied at equilibrium, for simple one-to-one binding.

One assay addresses HLA-A*0201 (Homo sapiens, UniProt P04439, /I218V/L300P/L318F/N151K/N90K/P208A/P217A/Q86G/Q94H/R138H/R169H/T345S). Description: ELISA-based MHC refolding assay. It counts as binding. On the procedure:
The amount of de novo-folded HLA/peptide complexes was determined by a quantitative ELISA. Dissociation constants (KD values) were calculated using a standard curve recorded from dilutions of a calibrant HLA/peptide complex.
A general note: An ELISA detects its analyte on a solid surface through an enzyme-linked reagent.

In assay [1] the test system is CD8+ T cells. The assay can be described thus: In vitro priming of CD8+ T cells with pMHC/anti-CD28 coated beads, tetramer readout. It is filed as cell-based, human. Particulars: for Positive donors/donors tested / Positive wells/wells tested: healthy donors, CD8+ cells stimulated with high density beads. On the procedure: To perform in vitro stimulations by artificial antigen presenting cells (aAPC) loaded with peptide-MHC complex (pMHC) and anti-CD28 antibody, first we isolated PBMCs (peripheral blood mononuclear cells) from fresh HLA-A*02+ buffy coats by using standard density gradient separation medium (PAA, Cölbe, Germany). Buffy coats were either obtained from the Blood Bank Tübingen or from the Katharinenhospital Stuttgart. Isolated PBMCs were incubated overnight in T-cell medium (TCM) for human in vitro priming consisting of RPMI-Glutamax (Invitrogen, Karlsruhe, Germany) supplemented with 10% heat inactivated human AB serum (PAA, Cölbe, Germany), 100 U/ml Penicillin/100 μg/ml Streptomycin (Cambrex, Verviers, Belgium), 1 mM sodium pyruvate (CC Pro, Neustadt, Germany) and 20 μg/ml Gentamycin (Cambrex). CD8+ lymphocytes were isolated using the CD8+ MACS positive selection kit (Miltenyi, Bergisch Gladbach, Germany) according to the manufacturer's instructions.
800.000 beads/200 μl were coated in 96-well plates in the presence of 600 ng biotin anti-CD28 plus 200 ng relevant biotin-pMHC (high density beads) or 2 ng relevant plus 200 ng irrelevant (pMHC library) MHC (low density beads). Stimulations were initiated in 96-well plates by co-incubating 1×10^6 CD8+ T cells with 2×10^5 washed coated beads in 200 μl TCM supplemented with 5 ng/ml IL-12 (PromoCell) for 3-4 days at 37° C. Half of the medium was then exchanged by fresh TCM supplemented with 80 U/ml IL-2 and incubating was continued for 3-4 days at 37° C. This stimulation cycle was performed for a total of three times.
Results shown have been obtained by stimulation of CD8+ cells with high density beads. As different human serum lots may highly affect the immunogenicity results, only assays in which one and the same serum lot was used, were evaluated together.

Assay [2] deals with HLA-DR broad antigens (HLA-DR1 to DR7). Description: ProImmune REVEAL MHC:peptide binding assay. Details: species or system human. Particulars: relative to pass/fail control; MET-005 tested as two overlapping 15-mers. The protocol: The ProImmune REVEAL™ technology employs in vitro HLA-DR assembly assays to determine the on-rates for the MHC:peptide complex as one major determinant of the binding constant of individual peptides. The assay was performed by ProImmune (Oxford, UK). At a fixed time point, the amount of intact MHC:peptide complexes is measured and compared with the amount for a pass/fail control (relative weak binder). A strong, promiscuous HLA-DR binder is included as positive control. Values indicate amount of binding for the individual peptides and HLA-DR molecules relative to the pass/fail control.
In this assay, binding was compared to that of a pass/fail control binder, and to a positive control peptide for each HLA-DR antigen.

The conditions of assay [3]: out of 18 patients treated, recurrent GBM, intermediate results; cited from earlier work.
Assay [4] deals with CD8+ T cells. Description: In vitro priming of CD8+ T cells with pMHC/anti-CD28 coated beads, tetramer readout. It counts as cell-based, human. As to conditions: small number of glioblastoma patients.
The test system of another assay is anti-survivin T cells. The assay can be described thus: Phase I/II vaccination study, T-cell response to Survivin peptide (IFN-g ELISPOT, +/-ICS). It counts as in vivo, human.

Where no end group is shown, it is not given here.

For the molecule `CSCC[C@H](NC(=O)[C@@H](N)[C@@H](C)O)C(=O)N[C@@H](CC(C)C)C(=O)N[C@@H](C)C(=O)N[C@@H](CCCNC(=N)N)C(=O)N[C@@H](CC(C)C)C(=O)N[C@@H](C)C(=O)N[C@@H](CO)C(=O)N[C@@H](C)C(=O)O` [CSP-001], at HLA-A*0201 (recombinant HLA-A*0201 with b2m, quantitative ELISA, read-out: Dissociation constant (KD) to HLA-A*0201), the Kd amounted to 2.05 nM. In the assay on CD8+ T cells [1], this molecule showed a Positive donors/donors tested of 100% and a Positive wells/wells tested of 57%.
“KVFAGIPTV (listed as Homo sapiens) [PTP-005]”: in the assay on CD8+ T cells [1], the Positive donors/donors tested is reported as 100% and the Positive wells/wells tested came to 52%.
The matching figures for “AMTQLLAGV (listed as Homo sapiens) [TNC-001]”: 60% and 30%.
In the case of “TFSYVDPVITSISPKYG (listed as Homo sapiens) [MET-005, MET-derived elongated HLA class I TUMAP]”, the “HLA class I binding of the full-length elongated peptide” value in the assay with HLA-A*0201 is “does not possess HLA class I binding capacities”. Further, in assay [2], the “HLA-DR antigens for which in vitro binding was obtained” value is “HLA-DR11”.
Consider “AMG102: human neutralizing antibody against HGF”, for which, in assay [3], the “patients with minor response” value is reported as 1 and the “patients with partial response” value is 1.
Consider “LTFGDVVAV (listed as Homo sapiens) [FABP7-001]”, for which, in the assay with CD8+ T cells [1], the Positive donors/donors tested is listed as 100% and the Positive wells/wells tested was 27%.
The matching figures for “AIIDGVESV (listed as Homo sapiens) [PTP-003]”: 50% and 17%.
“NLDTLMTYV (listed as Homo sapiens) [NLGN4X-001]”: the “in vitro immunogenicity in glioblastoma patients” value (“in vitro immunogenicity” for short) with CD8+ T cells [4] is on record as “immunogenic to a similar extent compared with healthy donors”. In the assay with CD8+ T cells [1], this molecule yielded a Positive donors/donors tested of 100% and a Positive wells/wells tested of 62%.
In the case of “KIQEILTQV (listed as Homo sapiens) [IGF2BP3-001]”, in the assay with CD8+ T cells [1], the Positive donors/donors tested came to 50% and the Positive wells/wells tested came to 21%.
The matching figures for YVDPVITSI [MET-001]: 67% and 39%.
“SLWAGVVVL (listed as Homo sapiens) [CHI-001]”: the “in vitro immunogenicity” value with CD8+ T cells [4] is on record as “immunogenic to a similar extent compared with healthy donors”. In the assay on CD8+ T cells [1], this molecule showed a Positive donors/donors tested of 100% and a Positive wells/wells tested of 63%.
Turning to “TLGEFLKLDRERAKN (listed as Homo sapiens) [BIR-002]”, the “HLA-DR antigens for which in vitro binding was obtained” value in assay [2] is “HLA-DR1, 3, 4 and 11”. In the assay on anti-survivin T cells (among the 16 reacting patients), the “patients with induction of an anti-survivin T-cell response upon vaccination” value was 12 and the “patients with pre existing anti-Survivin T cells” value came to 2. Also, in the assay with anti-survivin T cells (in vivo), the “immunogenicity in clinical trial in prostate cancer patients with different HLA-DR alleles” value was “broad immunogenicity”. Besides, the “patients who reacted to the peptide (IFN-g ELISPOT, +/-ICS)” value in the assay on anti-survivin T cells (of the 19 patients vaccinated, prostate carcinoma) is listed as 16.
On to “ALWAWPSEL (listed as Homo sapiens) [BCA-002]”, for which, in the assay with CD8+ T cells [4], the “in vitro immunogenicity” value was “immunogenic to a similar extent compared with healthy donors”. In the assay on CD8+ T cells [1], the “immunogenicity in comparison to another BCAN-derived peptide (IMA-BCA-001)” value is reported as “very immunogenic”, the Positive donors/donors tested was determined as 75% and the Positive wells/wells tested worked out at 35%.
In the case of “GLWHHQTEV (listed as Homo sapiens) [NRCAM-001]”, in the assay on CD8+ T cells [1], the Positive donors/donors tested came to 86% and the Positive wells/wells tested worked out at 39%.

Source of the values: US8895514B2, “Composition of tumor-associated peptides and related anti-cancer vaccine for the treatment of glioblastoma (GBM) and other cancers” (Immatics Biotechnologies GmbH, priority 2008, dated 2014).
